Like-named read-outs stand apart in the source and are kept apart here.
Columns and labels:
[1] = system: A549 cell lines (lung cancer cell lines); experiment: Oxygen Consumption Rate (OCR) of cells, corrected for cell viability (Cyquant); format: cell-based; details: Homo sapiens, read-out: OCR IC50
Method: The compounds synthesized by the methods disclosed in the Examples of the present invention have been measured on oxygen consumption rate and extracellular oxidation by the methods disclosed in the Test Examples below.
3×10^3 cells from A549 cell lines (purchased from ATCC-American Type Culture Collection), which are lung cancer cell lines, were placed on XF96 cell culture plates using RPMI1640 medium, and cultured at 37° C. in a 5% CO2 condition for 16 hours or more for attachment.
After 16 hours, the cells were treated with the drug at six different concentrations between 0 μM and 20 μM. After 24 hours, the existing medium was removed, and XF assay medium (15 mM D-Glucose, 15 mM sodium pyruvate, 4 mM L-Glutamine, pH 7.4) was added. The cells were retreated with the drug, and additionally cultured in Prep station at 37° C. in a non-CO2 condition for 1 hour. During the one-hour culture in the Prep station, a sensor cartridge was placed and calibrated for 20 minutes, and a plate with cells was placed to analyze the OCR. After the analysis was completed, XF96 plate was measured for cell viability using Cyquant assay, which measures the amount of intracellular DNA, in the following method. XF assay medium and the drug were removed, and the cells were placed in a cryogenic refrigerator (−80° C.) for at least 4 hours to be frozen. After the plate was made to be at room temperature, a solution where a lysis buffer and fluorescent GR dye were mixed was placed by 200 μL per well. After 20-minute reaction at room temperature, […] was measured between […] to calculate cell viability. A measured value of a well untreated with the drug was converted to 100% by reflecting cell viability to the OCR value. Concentration of a drug which inhibits the OCR value reflecting cell viability by 50% was calculated.

SK-MEL-28 cells = experiment: Inhibitory effect of cancer cell proliferation, MTT; format: cell-based; details: Homo sapiens
Method: The compounds prepared in the above Examples were evaluated for the inhibitory effect of cancer cell proliferation according to the method described in the following Test Example.
SK-MEL-28 cells derived from human melanoma were used, and the concentration (cell growth inhibitory concentration, IC50) at which cell growth was inhibited to 50% was measured using MTT reagent (3-(4,5-dimethylthiazole-2-yl)-2,5-[…] bromide) to confirm the inhibitory effect of cancer cell proliferation of the drugs synthesized in Examples 1 to 84.
First, SK-MEL-28 cells were cultured in 96-well plates at a cell number of about 1,250 in RPMI-1640 medium containing 11.1 mM glucose and 10% calf blood serum or 0.75 mM glucose and 10% calf blood serum, and were cultured for 16 hours. […] After treatment of the compound, MTT was added to the culture medium to confirm living cells and further cultured for 2 hours. The resulting formazane crystal was dissolved using dimethyl sulfoxide, and the absorbance of the solution was measured at 555 nm. After culturing for 72 hours, the number of viable cells in the well plate treated with the compounds synthesized in the Examples relative to the number of cells cultured in the well plate without treatment of the compounds was expressed as cell viability (%) according to each treatment concentration. By using this, a cell viability curve graph was prepared, and the inhibitory effect of cancer cell proliferation was confirmed by calculating the concentration of the compound whose growth was inhibited to 50% (IC50).

[2] = A549 cells, 24 h drug treatment, OCR value reflecting cell viability
[3] = SK-MEL-28, 0.75 mM glucose, 72 hours, MTT, read-out: SK-MEL-28 0.75 mM glucose Cell viability (IC50 μM)
[4] = SK-MEL-28, 11.1 mM glucose, 72 hours, MTT, read-out: SK-MEL-28 11.1 mM glucose Cell viability (IC50 μM)
[5] = SK-MEL-28, 72 h, read-out: SK-MEL-28 0.75 mM glucose Cell viability (IC50 μM)
[6] = SK-MEL-28, 72 h, read-out: SK-MEL-28 11.1 mM glucose Cell viability (IC50 μM)

Row | Structure (SMILES) | IC50 [1, 2] | IC50 (SK-MEL-28 cells; [3]) | IC50 (SK-MEL-28 cells; [4]) | IC50 ([1]; A549, 24 h) | IC50 (SK-MEL-28 cells; [5]) | IC50 (SK-MEL-28 cells; [6])
1 | Nc1cc[n+](CC2CC2)c(F)c1 [Example 39, 4-Amino-1-(cyclopropylmethyl)-2-fluoropyridinium chloride] | 2.7 µM | 45.3 µM | 76.5 µM | – | – | –
2 | Nc1cc[n+](CCC2CCCCC2)c(N)c1 [Example 40, 2,4-Diamino-1-(2-cyclohexylethyl)pyridinium bromide] | 0.9 µM | 7.5 µM | 30.6 µM | – | – | –
3 | CNc1cc[n+](CC2CC2)cc1 [Example 41, 1-(Cyclopropylmethyl)-4-(methylamino)pyridinium chloride] | 2.7 µM | 35.1 µM | 234 µM | – | – | –
4 | CN(C)c1cc[n+](CC2CC2)cc1 [Example 42, 1-(Cyclopropylmethyl)-4-(dimethylamino)pyridinium chloride] | 1.5 µM | 35 µM | 199 µM | – | – | –
5 | Cc1c[n+](Cc2ccccc2)ccc1N [Example 43, 4-Amino-3-methyl-1-benzylpyridinium chloride] | 0.9 µM | 14.4 µM | 45.5 µM | – | – | –
6 | Cc1c[n+](CCc2ccccc2)ccc1N [Example 44, 4-Amino-3-methyl-1-phenethylpyridinium chloride] | 1.1 µM | 15.2 µM | 105 µM | – | – | –
7 | COc1cc(N)cc[n+]1Cc1ccccc1 [Example 45, 4-Amino-1-benzyl-2-methoxypyridinium chloride] | 5 µM | 16.6 µM | 81.4 µM | – | – | –
8 | Nc1cc[n+](CC2CCCCC2)cc1 [Example 46, 4-Amino-1-(cyclohexylmethyl)pyridinium bromide] | 0.8 µM | 7.9 µM | 49.6 µM | – | – | –
9 | Nc1cc[n+](CC2CCC2)cc1 [Example 47, 4-Amino-1-(cyclobutylmethyl)pyridinium bromide] | 5 µM | 20.3 µM | 167 µM | – | – | –
10 | Nc1cc[n+](CC2CCC2)c(F)c1 [Example 48, 4-Amino-1-(cyclobutylmethyl)-2-fluoropyridinium bromide] | 0.8 µM | 19.9 µM | 46.3 µM | – | – | –
11 | Nc1cc[n+](Cc2ccc(F)cc2)cc1 [Example 49, 4-Amino-1-(4-fluorobenzyl)pyridinium bromide] | 2.4 µM | 10.3 µM | 54.5 µM | – | – | –
12 | c1ccc(C[n+]2ccc(N3CCOCC3)cc2)cc1 [Example 50, 1-Benzyl-4-morpholinopyridinium chloride] | 1 µM | 13.9 µM | 208 µM | – | – | –
13 | c1c[se]c(C[n+]2ccc(N3CCCC3)cc2)c1 [Example 72, 4-(Pyrrolidin-1-yl)-1-(selenophen-2-ylmethyl)pyridinium chloride] | – | – | – | 1 µM | 2.6 µM | 37.2 µM
14 | Nc1cc[n+](Cc2ccc[se]2)nc1 [Example 75, 4-Amino-1-(selenophen-2-ylmethyl)pyridazin-1-ium chloride] | – | – | – | 18.8 µM | 57.7 µM | 239 µM
15 | Nc1cc[n+](Cc2ccc[se]2)cc1 [Example 76, 4-Amino-1-(selenophen-2-ylmethyl)pyridinium chloride] | – | – | – | 1.5 µM | 14.1 µM | 114 µM

More lines, main results first:

Row | IC50 [1, 2] | IC50 (SK-MEL-28 cells; [3]) | IC50 (SK-MEL-28 cells; [4]) | Structure (SMILES) | IC50 ([1]; A549, 24 h) | IC50 (SK-MEL-28 cells; [5]) | IC50 (SK-MEL-28 cells; [6])
16 | 3.1 µM | 29.1 µM | 201 µM | c1ccc(CC[n+]2ccc(N3CCOCC3)cc2)cc1 [Example 51, 4-Morpholino-1-phenethylpyridinium chloride] | – | – | –
17 | 0.8 µM | 40 µM | 367 µM | c1c[n+](CC2CC2)ccc1N1CCOCC1 [Example 52, 4-Morpholino-1-(cyclopropylmethyl)pyridinium chloride] | – | – | –
18 | 0.5 µM | 8.7 µM | 76.4 µM | c1c[n+](CCC2CCCCC2)ccc1N1CCOCC1 [Example 53, 1-(2-Cyclohexylethyl)-4-morpholinopyridinium bromide] | – | – | –
19 | 1.1 µM | 3.4 µM | 29.7 µM | c1ccc(C[n+]2ccc(N3CCCC3)cc2)cc1 [Example 54, 1-Benzyl-4-(pyrrolidin-1-yl)pyridinium chloride] | – | – | –
20 | 3.1 µM | 0.1 µM | 45.9 µM | c1ccc(CC[n+]2ccc(N3CCCC3)cc2)cc1 [Example 55, 1-Phenethyl-4-(pyrrolidin-1-yl)pyridinium chloride] | – | – | –
21 | 0.8 µM | 4.4 µM | 118 µM | c1c[n+](CC2CC2)ccc1N1CCCC1 [Example 56, 1-(Cyclopropylmethyl)-4-(pyrrolidin-1-yl)pyridinium chloride] | – | – | –
22 | 0.5 µM | 1.1 µM | 23 µM | c1c[n+](CC2CCCCC2)ccc1N1CCCC1 [Example 57, 1-(Cyclohexylmethyl)-4-(pyrrolidin-1-yl)pyridinium bromide] | – | – | –
23 | 2.5 µM | 3 µM | 93.9 µM | c1c[n+](CC2CCC2)ccc1N1CCCC1 [Example 58, 1-(Cyclobutylmethyl)-4-(pyrrolidin-1-yl)pyridinium chloride] | – | – | –
24 | 2.8 µM | 2.8 µM | 33.4 µM | c1ccc(C[n+]2ccc(N3CCCCC3)cc2)cc1 [Example 59, 1-Benzyl-4-(piperidin-1-yl)pyridinium chloride] | – | – | –
25 | 3.3 µM | 20 µM | 24.1 µM | c1ccc(C[n+]2ccc(N3CCCCCC3)cc2)cc1 [Example 60, 4-(Azepan-1-yl)-1-benzylpyridinium chloride] | – | – | –
26 | 15.7 µM | 1.5 µM | – | CC(C)(C)CNc1cc[n+](Cc2ccccc2)cc1 [Example 61, 1-Benzyl-4-(neopentylamino)pyridinium chloride] | – | – | –
27 | 7.1 µM | 20.4 µM | 208 µM | c1c[n+](CC2CC2)cc2c1NCCC2 [Example 63, 6-(Cyclopropylmethyl)-1,2,3,4-tetrahydro-1,6-naphthyridin-6-ium chloride] | – | – | –
28 | 10.2 µM | 21 µM | 187 µM | c1c[n+](CC2CC2)cc2c1NCCO2 [Example 64, 6-(Cyclopropylmethyl)-2,3-dihydro-1H-pyrido[3,4-b][1,4]oxazin-6-ium chloride] | – | – | –
29 | 5.2 µM | 6.1 µM | 77 µM | c1ccc(C[n+]2ccc(N3CCC3)cc2)cc1 [Example 66, 4-(Azetidin-1-yl)-1-benzylpyridinium chloride] | – | – | –
30 | 0.8 µM | 1.7 µM | 38.5 µM | c1csc(C[n+]2ccc(N3CCCC3)cc2)c1 [Example 68, 4-(Pyrrolidin-1-yl)-1-(thiophen-2-ylmethyl)pyridinium chloride] | – | – | –
31 | 3.4 µM | 9.4 µM | 49.5 µM | c1c[n+](CC2CC2)ccc1N1CCC1 [Example 70, 4-(Azetidin-1-yl)-1-(cyclopropylmethyl)pyridinium chloride] | – | – | –
32 | 3.4 µM | 6.8 µM | 76.4 µM | c1cc(C[n+]2ccc(N3CCC3)cc2)cs1 [Example 71, 4-(Azetidin-1-yl)-1-(thiophen-3-ylmethyl)pyridinium bromide] | – | – | –
33 | 2.4 µM | 15.8 µM | 106 µM | Nc1cc[n+](Cc2cccs2)cc1 [Example 77, 4-Amino-1-(thiophen-2-ylmethyl)pyridinium chloride] | – | – | –
34 | 2.1 µM | 3.55 µM | 104 µM | c1coc(C[n+]2ccc(N3CCCC3)cc2)c1 [Example 78, 1-(Furan-2-ylmethyl)-4-(pyrrolidin-1-yl)pyridinium chloride] | – | – | –
35 | 0.8 µM | 1.16 µM | 30.7 µM | Cc1ccc(C[n+]2ccc(N3CCCC3)cc2)s1 [Example 79, 1-((5-Methylthiophen-2-yl)methyl)-4-(pyrrolidin-1-yl)pyridinium chloride] | – | – | –

Source: US20170305861A1, “HETEROARYL COMPOUNDS COMPRISING NITROGEN AND USE THEREOF” (ImmunoMet Therapeutics, Inc, priority 2016, published 2017)
